Data set [1] has as its system Trypanosoma brucei rhodesiense (STIB 900 strain). Kind of data set: Alamar Blue assay against Trypanosoma brucei rhodesiense grown in axenic medium. In kind it is cell-based. Particulars: In vitro inhibition, read-out: T.b.rhod. The gist of the method:
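T. b. rhodesiense STIB 900 cultured in axenic medium and exposed to samples in an Alamar Blue viability assay, run in triplicate. IC50 calculated from the readout; melarsoprol served as reference drug.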

In data set [2] the test system is Trypanosoma cruzi trypomastigote forms (Tulahuen strain). The data set can be described thus: Intracellular Trypanosoma cruzi assay in L6-cells, beta-galactosidase/CPRG readout. In kind it is cell-based. The conditions noted are these: In vitro inhibition, read-out: T.cruzi. The gist of the method:
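L6 rat myoblasts infected with Tulahuen C2C4 LacZ T. cruzi; after incubation, CPRG/Nonidet substrate added and colour developed 2–6 h. Absorbance at 540 nm; IC50 calculated; triplicate tests.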

In data set [3] the test system is Axenically grown Leishmania donovani amastigotes (strain MHOM/ET/67/L82). The data set can be described thus: Axenic Leishmania donovani amastigote resazurin assay. In kind it is cell-based. The conditions noted are these: In vitro inhibition, read-out: L.don. ax. The gist of the method: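 Strain MHOM/ET/67/L82 amastigotes grown axenically and tested in triplicate by resazurin assay. Plates developed 2-4 hours, fluorescence read at 536 nm excitation/588 nm emission and expressed as percentage of negative control.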
In general terms: The colour change of resazurin is a common sign of viable cells or microbes.

Data set [4] has as its system intracellular Leishmania donovani (L.don. InMac). Kind of data set: Intracellular Leishmania donovani assay (L.don. InMac). In kind it is cell-based. Particulars: In vitro inhibition. The text has this:
(§1) Tests were done in triplicate.

A further data set has as its system Plasmodium falciparum. The data set can be described thus: 3H-hypoxanthine incorporation assay against Plasmodium falciparum. In kind it is cell-based. The conditions noted are these: In vitro inhibition, read-out: P.falc NF5. As to the method: as §1
IC50 values were calculated by linear interpolation.

A short description of data set [5]: Cytotoxicity assay on L6-cells (Alamar Blue). Particulars: rat, Cytotox L6, Cytotoxicity against rat myoblast cells (L6).

Non-standard residues stand in square brackets, D forms with d. Residues, ends and D or L forms follow the SMILES beside them. *: point of attachment. NHCH2CH2(piperidin-1-yl) = C1CCN(CCN*)CC1; NH((S)CH(Me)CH2NMe2) = C[C@@H](CN(C)C)N*; NH(2-morpholinoethyl) = C(CN1CCOCC1)N*; Gly(octyl) = CCCCCCCC[C@H](N)C(=O)O; X11 = C[C@@H]1CN(CCN*)C[C@H](C)O1; NHCH2CH2NMe2 = CN(C)CCN*; Hexanoyl = CCCCCC(=O)*; X13 = O=C(CCN1CCOCC1)*; Aib = CC(C)(N)C(=O)O; X2 = CN(C)CCN(C)*; βAla = NCCC(=O)O

Regarding `CCCCCCCC[C@H](NC(=O)[C@@H]1CCCN1C(=O)CCCCC)C(=O)N[C@@H](CC(C)C)C(=O)NC(C)(C)C(=O)N[C@@H](CC(C)C)C(=O)N[C@@H](CC(C)C)C(=O)NC(C)(C)C(=O)NC(C)(C)C(=O)NCCC(=O)NCCN(C)C` [Compound 5643, (2S)-N-[(1S)-1-[(1-{[(1S)-1-{[(1S)-1-{[1-({1-[(2-{[2-(dimethylamino)ethyl]carbamoyl}ethyl)carbamoyl]-1-methylethyl}carbamoyl)-1-methylethyl]carbamoyl}-3-methylbutyl]carbamoyl}-3-methylbutyl]carbamoyl}-1-methylethyl)carbamoyl]-3-methylbutyl]-2-{[(2S)-1-hexanoylpyrrolidin-2-yl]formamido}decanamide] (Hexanoyl-P[Gly(octyl)]L[Aib]LL[Aib][Aib][βAla]-NHCH2CH2NMe2), the IC50 in data set [1] turned out to be 4.9 nM; in data set [2] it was 89.8 nM; in data set [3], 3.6 nM; in data set [4] it was 107 nM; in the data set with Plasmodium falciparum it was 3 nM. In data set [5], this compound showed an IC50 at 70 h of 862 nM.

For `CCCCCCCC[C@H](NC(=O)[C@@H]1CCCN1C(=O)CCCCC)C(=O)N[C@@H](CC(C)C)C(=O)NC(C)(C)C(=O)N[C@@H](CC(C)C)C(=O)N[C@@H](CC(C)C)C(=O)NC(C)(C)C(=O)NC(C)(C)C(=O)NCCC(=O)N(C)CCN(C)C` [Compound 5644, (2S)-N-[(1S)-1-[(1-{[(1S)-1-{[(1S)-1-{[1-({1-[(2-{[2-(dimethylamino)ethyl](methyl)carbamoyl}ethyl)carbamoyl]-1-methylethyl}carbamoyl)-1-methylethyl]carbamoyl}-3-methylbutyl]carbamoyl}-3-methylbutyl]carbamoyl}-1-methylethyl)carbamoyl]-3-methylbutyl]-2-{[(2S)-1-hexanoylpyrrolidin-2-yl]formamido}decanamide] (Hexanoyl-P[Gly(octyl)]L[Aib]LL[Aib][Aib][βAla]-X2), the IC50 amounted to 208 nM in data set [1]; 1470 nM in data set [2]; 148 nM in data set [3]; 844 nM in data set [4]; 26 nM with Plasmodium falciparum. The same compound yielded an IC50 at 70 h in data set [5] of 1240 nM.

For `CCCCCCCC[C@H](NC(=O)[C@@H]1CCCN1C(=O)CCCCC)C(=O)N[C@@H](CC(C)C)C(=O)NC(C)(C)C(=O)N[C@@H](CC(C)C)C(=O)N[C@@H](CC(C)C)C(=O)NC(C)(C)C(=O)NC(C)(C)C(=O)NCCC(=O)NCCN1CCOCC1` [Compound 5646, (2S)-2-{[(2S)-1-hexanoylpyrrolidin-2-yl]formamido}-N-[(1S)-3-methyl-1-[(1-methyl-1-{[(1S)-3-methyl-1-{[(1S)-3-methyl-1-{[1-methyl-1-({1-methyl-1-[(2-{[2-(morpholin-4-yl)ethyl]carbamoyl}ethyl)carbamoyl]ethyl}carbamoyl)ethyl]carbamoyl}butyl]carbamoyl}butyl]carbamoyl}ethyl)carbamoyl]butyl]decanamide] (Hexanoyl-P[Gly(octyl)]L[Aib]LL[Aib][Aib][βAla]-{NH(2-morpholinoethyl)}), the IC50 in data set [1] turned out to be 212 nM; in data set [2], 392 nM; in data set [3] it was 1.6 nM; in data set [4], 99.5 nM; with Plasmodium falciparum, 22.4 nM. The same compound gave an IC50 at 70 h in data set [5] of 1460 nM.

Turning to `CCCCCCCC[C@H](NC(=O)[C@@H]1CCCN1C(=O)CCCCC)C(=O)N[C@@H](CC(C)C)C(=O)NC(C)(C)C(=O)N[C@@H](CC(C)C)C(=O)N[C@@H](CC(C)C)C(=O)NC(C)(C)C(=O)NC(C)(C)C(=O)NCCC(=O)NCCN1CCCCC1` [Compound 5647, (2S)-2-{[(2S)-1-hexanoylpyrrolidin-2-yl]formamido}-N-[(1S)-3-methyl-1-[(1-methyl-1-{[(1S)-3-methyl-1-{[(1S)-3-methyl-1-{[1-methyl-1-({1-methyl-1-[(2-{[2-(piperidin-1-yl)ethyl]carbamoyl}ethyl)carbamoyl]ethyl}carbamoyl)ethyl]carbamoyl}butyl]carbamoyl}butyl]carbamoyl}ethyl)carbamoyl]butyl]decanamide] (Hexanoyl-P[Gly(octyl)]L[Aib]LL[Aib][Aib][βAla]-{NHCH2CH2(piperidin-1-yl)}), the IC50 is 3.6 nM in data set [1]; 13.4 nM in data set [2]; 3 nM in data set [3]; 62.1 nM in data set [4]; 0.6 nM in the data set with Plasmodium falciparum. In data set [5], this compound registered an IC50 at 70 h of 182 nM.

Regarding `CCCCCCCC[C@H](NC(=O)[C@@H]1CCCN1C(=O)CCCCC)C(=O)N[C@@H](CC(C)C)C(=O)NC(C)(C)C(=O)N[C@@H](CC(C)C)C(=O)N[C@@H](CC(C)C)C(=O)NC(C)(C)C(=O)NC(C)(C)C(=O)NCCC(=O)NCCN1C[C@@H](C)O[C@@H](C)C1` [Compound 5648, (2S)-N-[(1S)-1-[(1-{[(1S)-1-{[(1S)-1-({1-[(1-{[2-({2-[(2R,6S)-2,6-dimethylmorpholin-4-yl]ethyl}carbamoyl)ethyl]carbamoyl}-1-methylethyl)carbamoyl]-1-methylethyl}carbamoyl)-3-methylbutyl]carbamoyl}-3-methylbutyl]carbamoyl}-1-methylethyl)carbamoyl]-3-methylbutyl]-2-{[(2S)-1-hexanoylpyrrolidin-2-yl]formamido}decanamide] (Hexanoyl-P[Gly(octyl)]L[Aib]LL[Aib][Aib][βAla]-X11), the IC50 in data set [1] was found to be 54.7 nM; in data set [2], 229 nM; in data set [3], 0.5 nM; in data set [4], 186 nM; in the data set on Plasmodium falciparum, 26.9 nM. The compound also showed an IC50 at 70 h in data set [5] of 2280 nM.

As for `CCCCCCCC[C@H](NC(=O)[C@@H]1CCCN1C(=O)CCN1CCOCC1)C(=O)N[C@@H](CC(C)C)C(=O)NC(C)(C)C(=O)N[C@@H](CC(C)C)C(=O)N[C@@H](CC(C)C)C(=O)NC(C)(C)C(=O)NC(C)(C)C(=O)NCCC(=O)N[C@@H](C)CN(C)C` [Compound 5650, (2S)-N-[(1S)-1-[(1-{[(1S)-1-{[(1S)-1-{[1-({1-[(2-{[(2S)-1-(dimethylamino)propan-2-yl]carbamoyl}ethyl)carbamoyl]-1-methylethyl}carbamoyl)-1-methylethyl]carbamoyl}-3-methylbutyl]carbamoyl}-3-methylbutyl]carbamoyl}-1-methylethyl)carbamoyl]-3-methylbutyl]-2-{[(2S)-1-[3-(morpholin-4-yl)propanoyl]pyrrolidin-2-yl]formamido}decanamide] (X13-P[Gly(octyl)]L[Aib]LL[Aib][Aib][βAla]-{NH((S)CH(Me)CH2NMe2)}), the IC50 worked out at 15.3 nM in data set [1]; 133 nM in data set [2]; 105 nM in data set [3]; 188 nM in data set [4]; 11.1 nM in the data set on Plasmodium falciparum. Besides, in data set [5], the IC50 at 70 h is 492 nM.

The record behind these values is patent EP3345917A1, “ANTIPROTOZOAL COMPOUNDS” (Bacoba AG, priority 2017, dated 2018).
